# Source: patent publication US20200261497A1, “Iodinated Contract Medium for Use as a Medicament for Thyroid Radioprotection” (priority 2017, published 2020)
# Legend:
# HT29-NIS cells = test: 125I iodide uptake in HT29-NIS cells; type: cell-based, human; details: one hour incubation with 125I, Iomeron 100 μL corresponding to 70 mg of iomeprol
# Description: (§1) FIG. 2: Effect of Iomeron on iodide uptake of established cell lines expressing NIS. HT29-NIS (A) or PCCL3 (B) cells were incubated for one hour with ^125I in the presence of an equal volume of either saline, Iomeron (100 μL corresponding to 70 mg of iomeprol), NaI or perchlorate. Cells were then rapidly washed with saline buffer and lysed. Aliquots of lysates were counted in a y counter. The results are expressed as percentage of uptake in the control condition. The data presented are the mean±SEM of triplicates and are representative of three independent experiments. n.s: non statistically significant.
# (§2) The human colorectal cancer cell line HT-29 (HTB-38, ATCC) was transfected with pcDNA3.1-mNIS (murine NIS) (Perron et al., 2001) using the FuGENE 6 reagent (Roche) according to the manufacturer's instructions. Stable clones were selected by addition of 1 mg/mL geneticin (G418) to the medium 3 days after transfection. One clone with high functional expression of NIS was selected (Richard-Fiardo et al., 2012). The rat follicular thyroid cell line PCCL3 was obtained from Dr. A. De La Vieja (Madrid, Spain) and cultured as previously described (Leoni et al., 2011). Measurement of in vitro iodide uptake was performed as previously described (Groot-Wassink et al., 2002).
# (§3) We next examined whether iomeprol and its contaminating free iodide could affect iodide uptake in NIS-expressing cell lines. HT29-NIS (a human colorectal carcinoma cell line expressing NIS) (FIG. 2A) or PCCL3 (a rat follicular thyroid cell line) (FIG. 2B) cells were incubated with ^125I in the presence of either saline buffer, Iomeron, NaI, or perchlorate (NaClO4). After one hour, cells were washed and cellular ^125I content was determined.
# PCCL3 cells = test: 125I iodide uptake in PCCL3 cells; type: cell-based, rat; details: one hour incubation with 125I, Iomeron 100 μL corresponding to 70 mg of iomeprol
# Description: as §1, §2, §3
# mouse thyroid = test: 99m-pertechnetate uptake by the mouse thyroid (microSPECT/CT); type: in vivo
# Description: (§4) FIG. 3: Effect of Iomeron on the uptake of ^99m-pertechnetate by the mouse thyroid and salivary glands. SPECT/CT imaging of mice administered 20 MBq ^99m-pertechnetate was performed (day 0). At the end of the scan, Iomeron was administered intravenously. One, four, eight, twelve and eighteen days later, animals were injected with 20 MBq ^99m-pertechnetate and new scans were performed. The data presented represent the percentage of radiotracer injected taken up by the thyroid (A) and salivary glands (B). (n=3 per condition). ***p<0.001; n.s: non statistically significant.
# FIG. 5: Effect of KI on the uptake of ^99m-pertechnetate by the mouse thyroid and salivary glands. SPECT/CT imaging of mice administered 20 MBq ^99m-pertechnetate was performed (day 0). Animals were injected intraperitoneally with KI (9 mg in 180 μL) and scanned 30 minutes later. Twenty-four hours later, animals were injected with 20 MBq ^99m-pertechnetate and new scans were performed. The data presented represent the percentage of radiotracer injected taken up by the thyroid (A) and salivary glands (B). (n=3 per condition). *p<0.05; ***p<0.001.
# FIG. 7: Evaluation of the effect of different modes of administration of Iomeron on the uptake of ^99m-pertechnetate by the thyroid. SPECT/CT imaging of mice administered 20 MBq ^99m-pertechnetate was performed (day 0). At the end of the scan, intravenous, sublingual, enteral, and intraperitoneal administrations of Iomeron were performed. Four days later, animals were injected with 20 MBq ^99m-pertechnetate and new scans were performed. The data presented represent the percentage of radiotracer injected taken up by the thyroid (A) and salivary glands (B). (n=2 per condition). ***p<0.001.
# FIG. 9: Effect of Telebrix, Optiray and Omnipaque on the uptake of ^99mpertechnetate by the mouse thyroid. SPECT/CT imaging of mice administered 20 MBq ^99mpertechnetate was performed (day 0). At the end of the scan, mice received a sublingual administration […] of Telebrix or Optiray, or Omnipaque. Two days later, animals were injected with 20 MBq ^99mpertechnetate and new scans were performed. The data presented represent the percentage of radiotracer injected taken up by the thyroid. (n=3 per condition). ***p<0.001; n.s: non statistically significant. % IA: percentage of the injected activity.
# Eight-week-old female C57B/6J mice were obtained from Janvier (Le Genest Saint Isle, France). Animal housing and procedures were conducted according to French Agriculture Ministry guidelines and were approved by the local ethics committee (Ciepal NCE/2014-211).
# Intravenous and intraperitoneal administration was performed by injecting 100 μL Iomeron diluted 50/50 (vol/vol) with phosphate-buffered saline (corresponding to 18 mg iomeprol). Enteral administration was performed by gavage of 100 μL Iomeron diluted 50/50 (vol/vol) with phosphate-buffered saline (corresponding to 18 mg iomeprol). Sublingual administration was performed on anesthetized mice by five sublingual depositions of 5 μL Iomeron, with a delay of 10 minutes between two administrations. This procedure led to the administration of […] iomeprol.
# ^99mTc pertechnetate (^99mTcO4^−) was obtained from a freshly eluted ^99Mo/^99mTc generator. Animals were administered intraperitoneally with activities of 20 MBq ^99mTcO4^−. Thyroid and salivary gland tracer uptake was measured at different times using a dedicated microSPECT/CT scanner (eXplore speCZT CT120, GE) under gas anesthesia (air and 1-2% isoflurane) in an air-warmed imaging chamber (Minerve, Esternay, France) to maintain body temperature at 37° C. The SPECT scanner uses a stationary full ring of CZT detectors and a rotating 7-pinhole (1 mm opening) collimator. A total of 350 projections were acquired over 360° in 8 minutes. Images were reconstructed using the manufacturer's 3D-OSEM algorithm (5 subsets and 11 iterations), which incorporates the system's collimator-detector response function and scatter correction. […]
# mouse salivary glands = test: 99m-pertechnetate uptake by the mouse salivary glands (microSPECT/CT); type: in vivo
# Description: as §4
# FIG. 5: Effect of KI on the uptake of ^99m-pertechnetate by the mouse thyroid and salivary glands. […]
# ^99mTc pertechnetate (^99mTcO4^−) was obtained from a freshly eluted ^99Mo/^99mTc generator. […] Thyroid and salivary gland tracer uptake was measured at different times using a dedicated microSPECT/CT scanner (eXplore speCZT CT120, GE) under gas anesthesia (air and 1-2% isoflurane) in an air-warmed imaging chamber (Minerve, Esternay, France) to maintain body temperature at 37° C. […] Reconstructed images were analyzed and quantified using AMIDE software (Loening and Gambhir, 2003). Tracer activities in the various relevant organs were calculated. […] Uptakes were expressed as percentages of the injected dose (% ID) after decay correction (Cambien et al., 2014).
# human thyroid = test: 99mTcO4- scintigraphy of the human thyroid; type: in vivo; details: patient, intravenous injection two weeks before scintigraphy
# Description: (§5) FIG. 4: Effect of Iomeron on the uptake of ^99m-pertechnetate by the human thyroid and salivary glands. Scintigraphies of a naïve patient (A) or a patient who has been administered with Iomeron two weeks before the scintigraphy. SG: salivary glands; T: thyroid; R: right; L: left.
# (§6) A “naïve” patient and a patient who had received an intravenous injection of Iomeron 350 two weeks before scintigraphy were involved. On the day of the scintigraphy, patients were injected intravenously with an activity of 1 MBq/kg and 600 s scans was performed 15 min later.
# human salivary glands = test: 99mTcO4- scintigraphy of the human salivary glands; type: in vivo; details: patient, intravenous injection two weeks before scintigraphy
# Description: as §5, §6
# NIS [1] = test: NIS expression in mouse thyroid glands (immunohistochemistry, Western blot); type: in vivo; details: four days after intravenous injection
# Description: (§7) FIG. 6: Analysis of NIS expression in the thyroid and salivary glands in response to Iomeron. Saline buffer (A, C) or Iomeron (B, D) were administered intravenously. Four days later, animals were culled and NIS expression in the thyroid glands (A, B) and salivary glands (C, D) were analyzed by immunohistochemistry (n=3 per group). Thyroids and salivary glands were also processed for Western blot analysis of NIS and β-actin expression (n=2 per group).
# (§8) Thyroid membrane proteins were subjected to SDS-PAGE electrophoresis as previously described (Cambien et al., 2014). Western blotting was performed with antibody 25 anti-mouse NIS, an affinity-purified rabbit immunoreactive serum fraction, or with an anti-β-actin antibody (Sigma).
# (§9) After culling the animals, thyroids and salivary glands were dissected, paraffin embedded, and cut into 4-μm-thick sections. The paraffin was then removed and the sections were rehydrated and subjected to an antigen retrieval treatment with a solution of citrate buffer, pH 6, using an automate (PT Link, Dako). Immunostaining was performed following a standard protocol (Dako EnVision™ FLEX using an automated immunostainer, Autostainer, Dako). Endogenous peroxide was blocked using the EnVision™ FLEX Peroxidase-Blocking Reagent. […]
# NIS [2] = test: NIS expression in mouse salivary glands (immunohistochemistry, Western blot); type: in vivo; details: four days after intravenous injection
# Description: as §7, §8, §9
# thyroid = details: KI tablets, prevention of 131-I entry into the thyroid; cited from earlier work
# [3] = after intravenous administration, scans on days 1, 4, 8, 12, 18
smiles,measurement,setting,value
"CN(C(=O)CO)c1c(I)c(C(=O)NCC(O)CO)c(I)c(C(=O)NCC(O)CO)c1I (stereo not drawn) [Iomeron, iomeprol]",iodide uptake (125I),HT29-NIS cells,failed to affect this uptake significantly
same,iodide uptake (125I),PCCL3 cells,failed to affect this uptake significantly
same,radiotracer uptake by the thyroid,mouse thyroid; 24 hours after intravenous administration,dramatic reduction
same,duration of low thyroid uptake capacity,mouse thyroid; [3],remained low for eight days
same,recovery of thyroid uptake capacity,mouse thyroid; [3],recovery was observed from day 12
same,radiotracer uptake by the thyroid,"mouse thyroid; enteral administration (gavage, 18 mg iomeprol), four days later",neither enteral nor intraperitoneal administration affected radiotracer uptake
same,radiotracer uptake by the thyroid,"mouse thyroid; intraperitoneal administration (18 mg iomeprol), four days later",neither enteral nor intraperitoneal administration affected radiotracer uptake
same,radiotracer uptake by the thyroid,"mouse thyroid; intravenous administration (18 mg iomeprol), four days later",marked reduction
same,radiotracer uptake by the thyroid,"mouse thyroid; sublingual administration (9 mg iomeprol), four days later",marked reduction
same,uptake by the salivary glands,"mouse salivary glands; after intravenous administration, same animals",failed to affect iodide uptake
same,uptake to the salivary glands,"mouse salivary glands; intravenous, sublingual, enteral or intraperitoneal administration, four days later",not affected in any condition
same,pertechnetate uptake in the thyroid,human thyroid,lack of fixation in the thyroid region
same,pertechnetate uptake in the salivary glands,human salivary glands,radiotracer uptake in the salivary glands
same,"NIS expression in thyroids, immunohistological analysis",NIS [1],hardly detectable
same,"NIS expression in the thyroid glands, western blot",NIS [1]; compared with controls,dramatic decrease
same,"NIS expression in ductal cells of the salivary glands, immunohistological analysis",NIS [2],detectable
same,"NIS expression in the salivary glands, western blot",NIS [2]; compared with controls,no significant difference
[I-].[Na+] [NaI],iodide uptake (125I),HT29-NIS cells,inhibited iodide uptake
same,iodide uptake (125I),PCCL3 cells,inhibited iodide uptake
"[I-].[K+] [KI, potassium iodide]",ability of the thyroid to take up pertechnetate,mouse thyroid; 30 minutes after intraperitoneal injection (9 mg in 180 μL),reduced
same,ability of the thyroid to take up pertechnetate,mouse thyroid; 24 hours after intraperitoneal injection (9 mg in 180 μL),recovered
same,duration of the protective effect,thyroid,24 h
[O-][Cl+3]([O-])([O-])O [perchlorate],iodide uptake (125I),HT29-NIS cells,inhibited iodide uptake
same,iodide uptake (125I),PCCL3 cells,inhibited iodide uptake
